According to US20250230193A1, “CYCLIC COMPOUND HAVING SELECTIVE KRAS INHIBITORY EFFECT ON HRAS AND NRAS” (CHUGAI SEIYAKU KABUSHIKI KAISHA, priority 2022, published 2025):

Tests used:
[1] = biological target: GDP-bound NRAS wild-type protein (Homo sapiens, UniProt P01111); test: Binding to NRAS by surface plasmon resonance (SPR), Single Cycle Kinetics; settings: KD ratio, GDP-bound NRAS wild-type vs GDP-bound KRAS wild-type, SPR
[2] = biological target: GDP-bound HRAS wild-type protein (Homo sapiens, UniProt P01112); test: Binding to HRAS by surface plasmon resonance (SPR), Single Cycle Kinetics; settings: KD ratio, GDP-bound HRAS wild-type vs GDP-bound KRAS wild-type, SPR
Chain of GDP-bound HRAS wild-type protein (P01112 whole entry): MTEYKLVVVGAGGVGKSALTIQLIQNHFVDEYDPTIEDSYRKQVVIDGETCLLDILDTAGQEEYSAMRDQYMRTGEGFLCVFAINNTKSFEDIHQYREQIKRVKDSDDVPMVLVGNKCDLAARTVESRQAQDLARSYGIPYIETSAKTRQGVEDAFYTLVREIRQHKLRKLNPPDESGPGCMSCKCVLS

Chain of GDP-bound NRAS wild-type protein (P01111 whole entry): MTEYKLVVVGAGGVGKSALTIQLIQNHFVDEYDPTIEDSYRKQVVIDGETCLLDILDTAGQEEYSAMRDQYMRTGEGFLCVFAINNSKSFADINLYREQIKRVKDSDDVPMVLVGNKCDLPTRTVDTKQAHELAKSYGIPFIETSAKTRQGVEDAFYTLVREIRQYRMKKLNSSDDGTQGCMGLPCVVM

| Structure (SMILES) | NRAS/KRAS (ratio of KD value for NRAS to KD value for KRAS) [1] | HRAS/KRAS (ratio of KD value for HRAS to KD value for KRAS) [2] |
| --- | --- | --- |
| CCC[C@H]1C(=O)N[C@@H]([C@@H](C)CC)C(=O)N(C)CC(=O)N(C)[C@H]2C/C=C\CCN(C2=O)[C@@H](Cc2ccc(C(F)(F)F)cc2)C(=O)N(C)CC(=O)N[C@@H](CCc2cc(F)c(Cl)c(F)c2)C(=O)N2C[C@H](OCC)C[C@H]2C(=O)NC2(CC(C)(C)C2)C(=O)N(C)[C@@H](C2CCCC2)C(=O)N(C)[C@H](C(=O)N(C)C)CC(=O)N1C [PP1758] | AA (a compound having 20 or more is denoted as AA) | A (a compound having 10 or more and less than 20 is denoted as A) |
| CCO[C@@H]1C[C@H]2C(=O)NC3(CC(C)(C)C3)C(=O)N(C)[C@@H](C3CCCC3)C(=O)N(C)[C@H](C(=O)N(C)C)CC(=O)N(C)[C@@H](CC3CC3)C(=O)N[C@@H]([C@@H](C)CC)C(=O)N(C)CC(=O)N(C)[C@H]3C/C=C\CCN(C3=O)[C@@H](Cc3ccc(C(F)(F)F)cc3)C(=O)N(C)CC(=O)N[C@@H](CCc3cc(F)c(Cl)c(F)c3)C(=O)N2C1 [PP1759] | A (a compound having 10 or more and less than 20 is denoted as A) | A (a compound having 10 or more and less than 20 is denoted as A) |
| CCO[C@@H]1C[C@H]2C(=O)NC3(CC(C)(C)C3)C(=O)N(C)[C@@H](C3CCCC3)C(=O)N(C)[C@H](C(=O)N(C)C)CC(=O)N(C)[C@@H](CC(C)C)C(=O)N[C@@H]([C@@H](C)CC)C(=O)N(C)CC(=O)N(C)[C@H]3C/C=C\CCN(C3=O)[C@@H](Cc3ccc(C(F)(F)F)cc3)C(=O)N(C)CC(=O)N[C@@H](CCc3cc(F)c(Cl)c(F)c3)C(=O)N2C1 [PP1761] | A (a compound having 10 or more and less than 20 is denoted as A) | A (a compound having 10 or more and less than 20 is denoted as A) |
| CCO[C@@H]1C[C@H]2C(=O)NC3(CC(C)(C)C3)C(=O)N(C)[C@@H](C3CCCC3)C(=O)N(C)[C@H](C(=O)N(C)C)CC(=O)N(C)[C@@H](CC3CCC3)C(=O)N[C@@H]([C@@H](C)CC)C(=O)N(C)CC(=O)N(C)[C@H]3C/C=C\CCN(C3=O)[C@@H](Cc3ccc(C(F)(F)F)cc3)C(=O)N(C)CC(=O)N[C@@H](CCc3cc(F)c(Cl)c(F)c3)C(=O)N2C1 [PP1762] | A (a compound having 10 or more and less than 20 is denoted as A) | A (a compound having 10 or more and less than 20 is denoted as A) |
| CCCN(C)C(=O)[C@@H]1CC(=O)N(C)[C@@H](COC)C(=O)N[C@@H]([C@@H](C)CC)C(=O)N(C)CC(=O)N(C)[C@H]2C/C=C\CCN(C2=O)[C@@H](Cc2ccc(C(F)(F)F)cc2)C(=O)N(C)CC(=O)N[C@@H](CCc2cc(F)c(Cl)c(F)c2)C(=O)N2C[C@H](OCC)C[C@H]2C(=O)NC2(CC(C)(C)C2)C(=O)N(C)[C@@H](C2CCCC2)C(=O)N1C [PP1763] | A (a compound having 10 or more and less than 20 is denoted as A) | A (a compound having 10 or more and less than 20 is denoted as A) |
| CCCOC[C@H]1C(=O)N[C@@H]([C@@H](C)CC)C(=O)N(C)CC(=O)N(C)[C@H]2C/C=C\CCN(C2=O)[C@@H](Cc2ccc(C(F)(F)F)cc2)C(=O)N(C)CC(=O)N[C@@H](CCc2cc(F)c(Cl)c(F)c2)C(=O)N2C[C@H](OCC)C[C@H]2C(=O)NC2(CC(C)(C)C2)C(=O)N(C)[C@@H](C2CCCC2)C(=O)N(C)[C@H](C(=O)N(C)C)CC(=O)N1C [PP1764] | AA (a compound having 20 or more is denoted as AA) | A (a compound having 10 or more and less than 20 is denoted as A) |
| CCO[C@@H]1C[C@H]2C(=O)NC3(CCC3)C(=O)N(C)[C@@H](C3CCCC3)C(=O)N(C)[C@H](C(=O)N(C)C)CC(=O)N(CC)[C@@H](CC(C)C)C(=O)N[C@@H]([C@@H](C)CC)C(=O)N(C)CC(=O)N(C)[C@H]3C/C=C\CCN(C3=O)[C@@H](Cc3ccc(C(F)(F)F)cc3)C(=O)N(C)CC(=O)N[C@@H](CCc3cc(F)c(C(F)(F)F)c(F)c3)C(=O)N2C1 [PP1765] | A (a compound having 10 or more and less than 20 is denoted as A) | A (a compound having 10 or more and less than 20 is denoted as A) |
| CCC[C@H]1C(=O)N[C@@H]([C@@H](C)CC)C(=O)N(CCC)CC(=O)N(C)[C@H]2C/C=C\CCN(C2=O)[C@@H](Cc2ccc(C(F)(F)F)cc2)C(=O)N(C)CC(=O)N[C@@H](CCc2cc(F)c(C(F)(F)F)c(F)c2)C(=O)N2C[C@H](OCC)C[C@H]2C(=O)NC2(CCC2)C(=O)N(C)[C@@H](C2CCCC2)C(=O)N(C)[C@H](C(=O)N(C)C)CC(=O)N1C [PP1767] | A (a compound having 10 or more and less than 20 is denoted as A) | B (a compound having 3 or more and less than 10 is denoted as B) |
| CCO[C@@H]1C[C@H]2C(=O)NC3(CC(C)(C)C3)C(=O)N(C)[C@@H](C3CCCC3)C(=O)N(CC)[C@H](C(=O)N(C)C)CC(=O)N(C)[C@@H](CC)C(=O)N[C@@H]([C@@H](C)CC)C(=O)N(C)CC(=O)N(C)[C@H]3C/C=C\CCN(C3=O)[C@@H](Cc3ccc(C(F)(F)F)cc3)C(=O)N(C)CC(=O)N[C@@H](CCc3cc(F)c(C(F)(F)F)c(F)c3)C(=O)N2C1 [PP1768] | A (a compound having 10 or more and less than 20 is denoted as A) | A (a compound having 10 or more and less than 20 is denoted as A) |
| CCC[C@H]1C(=O)N[C@@H]([C@@H](C)CC)C(=O)N(C)CC(=O)N(C)[C@H]2C/C=C\CCN(C2=O)[C@@H](Cc2ccc(C(F)(F)F)cc2)C(=O)N(C)CC(=O)N[C@@H](CCc2cc(F)c(C(F)(F)F)c(F)c2)C(=O)N2C[C@H](OCC)C[C@H]2C(=O)NC2(CCC2)C(=O)N(C)[C@@H](C2CCCC2)C(=O)N(CCC)[C@H](C(=O)N(C)C)CC(=O)N1C [PP1769] | A (a compound having 10 or more and less than 20 is denoted as A) | A (a compound having 10 or more and less than 20 is denoted as A) |
| CCO[C@@H]1C[C@H]2C(=O)NC3(CC(C)(C)C3)C(=O)N(C)[C@@H](C3CCCC3)C(=O)N(C)[C@H](C(=O)N(C)CC)CC(=O)N(C)[C@@H](CC(C)C)C(=O)N[C@@H]([C@@H](C)CC)C(=O)NCC(=O)N(C)[C@H]3C/C=C\CCN(C3=O)[C@@H](Cc3ccc(C(F)(F)F)cc3)C(=O)N(C)CC(=O)N[C@@H](CCc3cc(F)c(C(F)(F)F)c(F)c3)C(=O)N2C1 [PP1771] | A (a compound having 10 or more and less than 20 is denoted as A) | A (a compound having 10 or more and less than 20 is denoted as A) |
| CCO[C@@H]1C[C@H]2C(=O)NC3(CC(C)(C)C3)C(=O)N(C)[C@@H](C3CCCC3)C(=O)N(C)[C@H](C(=O)N(C)C)CC(=O)N(CC)[C@@H](CC(C)C)C(=O)N[C@@H]([C@@H](C)CC)C(=O)NCC(=O)N(C)[C@H]3C/C=C\CCN(C3=O)[C@@H](Cc3ccc(C(F)(F)F)cc3)C(=O)N(C)CC(=O)N[C@@H](CCc3cc(F)c(C(F)(F)F)c(F)c3)C(=O)N2C1 [PP1772] | B (a compound having 3 or more and less than 10 is denoted as B) | B (a compound having 3 or more and less than 10 is denoted as B) |
